According to US8293729B2 (Boehringer Ingelheim International GmbH, priority 2009, dated 2012):

These molecules were tested against T1, human GPR119 receptor (Homo sapiens, UniProt Q8TDV5, S329A/T327A) (assay: cAMP assay (LANCE cAMP-384) in HEK293 cells stably expressing mutant human GPR119 receptor). Conditions: HEK293, 20 min; 10 μM; the 28th table; read-out: stimulation in % at 10 μM.
T1 construct: N-terminal leader […]; expressed in transfected cells
T1 sequence (Q8TDV5 with tags, fused parts or gaps T327A/S329A): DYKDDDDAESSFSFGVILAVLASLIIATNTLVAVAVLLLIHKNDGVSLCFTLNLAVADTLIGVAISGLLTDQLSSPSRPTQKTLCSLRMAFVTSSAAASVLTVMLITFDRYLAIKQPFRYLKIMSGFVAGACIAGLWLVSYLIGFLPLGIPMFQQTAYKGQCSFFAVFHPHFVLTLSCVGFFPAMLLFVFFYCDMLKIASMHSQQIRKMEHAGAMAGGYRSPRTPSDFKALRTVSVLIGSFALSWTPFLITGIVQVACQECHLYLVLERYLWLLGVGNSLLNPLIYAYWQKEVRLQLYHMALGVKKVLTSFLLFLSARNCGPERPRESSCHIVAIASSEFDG
Assay type: cell-based
Experimental: Quantitative detection of cAMP accumulation from cells expressing human GPR119 receptor was achieved using Perkin Elmer's LANCE cAMP-384 Kit (Cat#AD0264) according to the manufacturer's protocol. Briefly, HEK293 cells stably expressing a mutant form of the human GPR119 receptor (Methionine 1 replaced with the amino acid sequence […] (SEQ ID NO: 1), and T327 & S329 changed to alanines) were grown to 50-70% confluency in cell culture media (DMEM, 10% heat inactivated Fetal Bovine Serum, 50 I.U./mL penicillin, 50 μg/mL streptomycin, 10 mM HEPES, 20 μg/mL G418 Sulfate). On the day of the assay, GPR119 stable HEK293 cells were lifted from the tissue culture plate and 1000 cells/well were incubated along with various concentrations of test compounds for 20 min at 37° C. Detection Buffer (50mM HEPES, 10mM calcium chloride, 0.35% Triton X-100, 1 mg/mL BSA) containing cAMP-specific antibody was then added to all wells and allowed to equilibrate in the dark for 10 minutes at room temperature. Upon equilibration, Detection Buffer containing europium-labeled cAMP tracer complex was added to all wells and allowed to react for 1 hour at room temperature. After 1 hour, bound europium-labeled cAMP tracer was measured using a Perkin Elmer ViewLux. The quantity of cAMP generated in each well was derived from a standard curve. EC50 was determined using nonlinear regression analysis of the cAMP values over a range of agonist concentration (12 points spanning the range from 30 μM to 100pM).
For some compounds for which no EC50 value could be determined, the efficacy is provided at a single concentration (10 μM) yielding % stimulation values.

Row | SMILES | activation at 10 µM [%]
1 | CC(C)OC(=O)N1CCC(ON=C2CCN(c3ncc(N4CCCC4=O)cn3)CC2)CC1 [Example 51-6] | 98

Same assay, conditions: HEK293, 20 min; at 10 μM; printed in EC50 column of the 36th table; read-out: stimulation in % at 10 μM

Row | SMILES | activation at 10 µM [%]
2 | CCc1ncc(CN2CCC(ON=C3CCN(c4ccc(S(C)(=O)=O)cc4F)CC3)CC2)cn1 [Example 66-49] | 75
3 | CS(=O)(=O)c1ccc(N2CCC(=NOC3CCN(Cc4cccnc4Cl)CC3)CC2)c(F)c1 [Example 66-51] | 66
4 | CS(=O)(=O)c1ccc(N2CCC(=NOC3CCN(Cc4ccc5c(c4)OCO5)CC3)CC2)c(F)c1 [Example 66-37] | 87

Same assay, conditions: HEK293, 20 min; single concentration 10 μM; given where no EC50 value could be determined; read-out: % stimulation at 10 μM

Row | SMILES | activation at 10 µM [%]
5 | CNCc1cc(F)c(N2CCC(=NOC3CCN(C(=O)OC(C)C)CC3)CC2)cc1F [Example 5-6] | 78

Same assay, conditions: cAMP accumulation, HEK293 cells stably expressing mutant human GPR119; read-out: EC50

Row | SMILES | EC50 [nM]
6 | CC(C)OC(=O)N1CCC(ON=C2CCN(c3cc(F)c([S+](C)[O-])cc3F)CC2)CC1 (stereo not shown) [Example 2-41] | 58
7 | CC(C)OC(=O)N1CCC(ON=C2CCN(c3c(C(=O)O)ccnc3Cl)CC2)CC1 [Example 2-59] | > 10000
8 | CC(C)(C)OC(=O)N1CCC(ON=C2CCN(c3ccc(S(C)(=O)=O)cc3F)CC2)CC1 [Example 1-1, tert-Butyl 4-[1-(2-Fluoro-4-methanesulfonylphenyl)piperidin-4-ylideneaminooxy]piperidine-1-carboxylate] | 29
9 | CC(C)OC(=O)N1CCC(ON=C2CCN(c3nc(F)c(F)cc3F)CC2)CC1 [Example 2-75] | 453
10 | CC(C)OC(=O)N1CCC(ON=C2CCN(c3nccc(Cl)n3)CC2)CC1 [Example 2-47] | 2010
11 | CC(C)OC(=O)N1CCC(ON=C2CCN(c3ccc(-c4cnco4)cc3F)CC2)CC1 [Example 20-2] | 498
12 | CC(C)OC(=O)N1CCC(ON=C2CCN(c3cc(F)c(CN(C)CCCC(=O)O)cc3F)CC2)CC1 [Example 5-10] | > 10000
13 | CC(C)OC(=O)N1CCC(ON=C2CCN(c3cc(F)c(CNCc4nccs4)cc3F)CC2)CC1 [Example 5-11] | 332
14 | Cc1cc(N2CCC(=NOC3CCN(C(=O)OC(C)C)CC3)CC2)ccn1 [Example 2-6] | 1480
15 | CC(C)OC(=O)N1CCC(ON=C2CCN(c3ncc(Cl)c(Cl)n3)CC2)CC1 [Example 2-50] | > 10000
16 | CC(C)OC(=O)N1CCC(ON=C2CCN(c3cc(F)c(-c4ncc[nH]4)cc3F)CC2)CC1 [Example 27-22] | 54
17 | CC(C)OC(=O)N1CCC(ON=C2CCN(c3ccc(S(C)(=O)=O)cc3)CC2)CC1 [Example 2-16] | 328
18 | CC(C)OC(=O)N1CCC(ON=C2CCN(c3cc(F)c(-c4cnc(N)nc4)cc3F)CC2)CC1 [Example 27-15] | 516
19 | CC(C)OC(=O)N1CCC(ON=C2CCN(c3ccc(C=O)cc3Cl)CC2)CC1 [Example 2-31] | 1250
20 | Cc1cnn(Cc2cc(F)c(N3CCC(=NOC4CCN(C(=O)OC(C)C)CC4)CC3)cc2F)c1 [Example 14-10] | 8
21 | CC(C)OC(=O)N1CCC(ON=C2CCN(c3cc(F)c(-c4ccncc4)cc3F)CC2)CC1 [Example 27-5] | 378
22 | CC(C)OC(=O)N1CCC(ON=C2CCN(c3cc(F)c(-c4ccc5[nH]ccc5c4)cc3F)CC2)CC1 [Example 27-32] | 1380
23 | CC(C)OC(=O)N1CCC(ON=C2CCN(c3cc(F)c(-c4ccsc4)cc3F)CC2)CC1 [Example 27-12] | 245
24 | CC(C)OC(=O)N1CCC(ON=C2CCN(c3cc(F)c(Cn4nccn4)cc3F)CC2)CC1 [Example 14-13] | 16
25 | CC(C)OC(=O)N1CCC(ON=C2CCN(c3cc(F)c(CN(C)CCO)cc3F)CC2)CC1 [Example 5-3] | > 10000
26 | CC(C)OC(=O)N1CCC(ON=C2CCN(c3cccc(S(C)(=O)=O)c3)CC2)CC1 [Example 32-3] | > 10000
27 | CC(C)OC(=O)N1CCC(ON=C2CCN(c3cc(F)c(-c4cn[nH]c4)cc3F)CC2)CC1 [Example 27-10] | 177
28 | CCOC(=O)c1cnn(Cc2cc(F)c(N3CCC(=NOC4CCN(C(=O)OC(C)C)CC4)CC3)cc2F)c1 [Example 14-11] | 190

Same assay, conditions: the 15th table; read-out: EC50

Row | SMILES | EC50 [nM]
29 | CC(C)OC(=O)N1CCC(ON=C2CCN(c3cc(F)c(C(=O)NCCO)cc3F)CC2)CC1 [Example 29-11] | 84

Same assay, conditions: the 19th table; unit inferred; read-out: EC 50

Row | SMILES | EC50 [nM]
30 | CCc1cnc(N2CCC(ON=C3CCN(c4cc(F)c(C(=O)NCC5CCCN5)cc4F)CC3)CC2)nc1 (stereo not shown) [Example 29-122] | 176
31 | CCc1cnc(N2CCC(ON=C3CCN(c4cc(F)c(C(=O)N5CCC[C@@H]5CNC)cc4F)CC3)CC2)nc1 [Example 29-135] | 297
32 | CCc1cnc(N2CCC(ON=C3CCN(c4cc(F)c(C(=O)N5C[C@H]6CNC[C@H]6C5)cc4F)CC3)CC2)nc1 [Example 29-111] | 295

Same assay, conditions: the 28th table; read-out: EC50

Row | SMILES | EC50 [nM]
33 | CC(C)OC(=O)N1CCC(ON=C2CCN(c3ncc(-n4cccn4)cc3F)CC2)CC1 [Example 51-2] | 558

Same assay, conditions: the 29th table; read-out: EC50

Row | SMILES | EC50 [nM]
34 | CC(C)OC(=O)N1CCC(ON=C2CCN(c3ccc(CO)cc3F)CC2)CC1 [Example 52-3] | 128

Same assay, conditions: the 30th table; read-out: EC50

Row | SMILES | EC50 [nM]
35 | CC(C)OC(=O)N1CCC(ON=C2CCN(c3ncc(CS(C)(=O)=O)cc3F)CC2)CC1 [Example 54-7] | 484

Same assay, conditions: the 32nd table; read-out: EC50

Row | SMILES | EC50 [nM]
36 | CS(=O)(=O)c1ccc(N2CCC(=NOC3CCN(c4ccccn4)CC3)CC2)c(F)c1 [Example 63-1, 1-(2-Fluoro-4-methanesulfonyl-phenyl)-piperidin-4-one O-(3,4,5,6-tetrahydro-2H-[1,2′]bipyridinyl-4-yl)-oxime] | 459
37 | CS(=O)(=O)c1ccc(N2CCC(=NOC3CCN(c4nccc(Cl)n4)CC3)CC2)c(F)c1 [Example 63-6] | 1340
38 | CS(=O)(=O)c1ccc(N2CCC(=NOC3CCN(c4ccnc(Cl)n4)CC3)CC2)c(F)c1 [Example 63-5] | > 10000
39 | Cc1cccc(N2CCC(ON=C3CCN(c4ccc(S(C)(=O)=O)cc4F)CC3)CC2)n1 [Example 63-2] | 1250

Same assay, conditions: the 33rd table; read-out: EC50

Row | SMILES | EC50 [nM]
40 | CC(C)(C)CCOC(=O)N1CCC(ON=C2CCN(c3ccc(S(C)(=O)=O)cc3F)CC2)CC1 [Example 64-41] | 202
41 | CS(=O)(=O)c1ccc(N2CCC(=NOC3CCN(C(=O)OCCN4CCOCC4)CC3)CC2)c(F)c1 [Example 64-43] | > 10000
42 | CCN(CC)CCCOC(=O)N1CCC(ON=C2CCN(c3ccc(S(C)(=O)=O)cc3F)CC2)CC1 [Example 64-29] | > 10000
43 | CC(N)COC(=O)N1CCC(ON=C2CCN(c3ccc(S(C)(=O)=O)cc3F)CC2)CC1 (stereo not shown) [Example 64-35] | > 10000
44 | CC(OC(=O)N1CCC(ON=C2CCN(c3ccc(S(C)(=O)=O)cc3F)CC2)CC1)C1CC1 (stereo not shown) [Example 64-5] | 90

Same assay, conditions: the 34th table, compounds 65-1 to 65-24; read-out: EC50

Row | SMILES | EC50 [nM]
45 | CS(=O)(=O)c1ccc(N2CCC(=NOC3CCN(C(=S)NC4CC4)CC3)CC2)c(F)c1 [Example 65-10] | > 10000

Same assay, conditions: the 36th table, compounds 66-1 to 66-51; read-out: EC50

Row | SMILES | EC50 [nM]
46 | Cc1ccc(CN2CCC(ON=C3CCN(c4ccc(S(C)(=O)=O)cc4F)CC3)CC2)cc1 [Example 66-26] | 288
47 | CCOc1ccc(CN2CCC(ON=C3CCN(c4ccc(S(C)(=O)=O)cc4F)CC3)CC2)cc1 [Example 66-46] | 418
48 | CS(=O)(=O)c1ccc(N2CCC(=NOC3CCN(Cc4ccccc4F)CC3)CC2)c(F)c1 [Example 66-16] | 560
49 | CC(C)CCN1CCC(ON=C2CCN(c3ccc(S(C)(=O)=O)cc3F)CC2)CC1 [Example 66-23] | > 10000

Same assay, conditions: the 43rd table, compounds 75-1 to 75-38; read-out: EC50

Row | SMILES | EC50 [nM]
50 | CC(C)OC(=O)N1CCC(ON=C2CCN(c3cc(F)c(CC(=O)N4CCCCC4CN4CCCCC4)cc3F)CC2)CC1 (stereo not shown) [Example 75-32] | 300
51 | CC(C)OC(=O)N1CCC(ON=C2CCN(c3cc(F)c(CC(=O)NC4CCNC4)cc3F)CC2)CC1 (stereo not shown) [Example 75-17] | 152
52 | CC(C)OC(=O)N1CCC(ON=C2CCN(c3cc(F)c(CC(=O)N4CCCCC4CN(C)C)cc3F)CC2)CC1 (stereo not shown) [Example 75-36] | 322
53 | CC(C)OC(=O)N1CCC(ON=C2CCN(c3cc(F)c(CC(=O)N4CCC[C@H]4CN4CCCC4)cc3F)CC2)CC1 [Example 75-29] | 2910
54 | CC(C)OC(=O)N1CCC(ON=C2CCN(c3cc(F)c(CC(=O)N4CCCC(CN(C)C)C4)cc3F)CC2)CC1 (stereo not shown) [Example 75-37] | 155

Same assay, conditions: the 44th table, compounds 77-1 to 77-14; read-out: EC50

Row | SMILES | EC50 [nM]
55 | CCc1cnc(N2CCC(ON=C3CCN(c4cc(F)c(CC(=O)N5CCC[C@H](N)C5)cc4F)CC3)CC2)nc1 [Example 77-7] | 45
